Experimental data taken from patent US8937167B2 (Washington University, priority 2009, dated 2015).
Where two headings read alike, the source gives them in different places.

Assays:
[1] = type: in vitro ADME; settings: for PAMPA (LogPe): pH 7.4
Description: Materials. The assay was carried out using Multiscreen PVDF 96-well plates (Millipore, Billerica, Mass.) using the company's Transporter Receiver Plate. The lipid (dioleyoylphosphotidylcholine (DOPC):Stearic Acid (80:20, wt %) in dodecane was obtained from Avanti Polar lipids (Alabaster, Ala.). Hank's Buffered Salt Solution (HBSS), pH 7.4 was obtained from MediaTech (Manassas, Va.).
Methods. Each of the test compounds was diluted to 2.5 mM in DMSO (Sigma, St Louis, Mo.) and further diluted prior to testing to 2.5 μM in HBSS, pH 7.4. The assay was performed using a Millipore 96-well Multiscreen-IP PAMPA plate, 5 μl of the lipid suspension was directly added to the PVDF membrane of the filter plate. Immediately following the addition of the lipid to the membrane, 200 μl of HBSS solution containing the test compound was added to the donor (upper) chamber. HBSS (300 μl) is also added to the receiver plate and the filter and receiver plates assembled and incubated overnight at room temperature in a moistened sealed bag to prevent evaporation. The concentration in the receiver plate as well as an equilibrium plate, that represents a theoretical, partition-free sample, was determined by HPLC-tandem mass spectrometry. Analysis of each compound was performed in triplicate.
Analysis. Analysis of both the acceptor and equilibrium samples were performed using an AB 3200 triple quadripole mass spectrometer linked to a Shimadzu DGU-20A HPLC with a Prevail C18 column (3 μm, 2.1×10 mm) with a flow rate of 0.35 ml/min. The mobile phase used was A: 0.1% Formic Acid in water, B: 0.1% Formic Acid in methanol. The elation gradient method is described in the table. Data acquisition and peak height determination was performed using Analyst v.1.4.2.
Calculations. The login of the effective permeability (LogPe) was calculated using the following equation
[formula] [formula] Where the drug concentration is the peak areas for the analyte and VD and VA is the volume of the donor and acceptor compartment respectively. The area is the surface area of the PVDF membrane (0.11 cm^2) and time is the incubation in seconds (64,800 sec). Each value is the mean of triplicates performed on the same day.

FimH [2] = biological target: T1, FimH (Escherichia coli, UniProt Q1R2J4); settings: for HAI Titer EC>50: Table 21;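 for all read-outs here: hemagglutination inhibition of guinea pig erythrocytes agglutinated by type 1 piliated uropathogenic E. coli via FimH mannose binding, quantified through serial dilutions of compound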
UTI89 biofilm = assay: UTI89 type 1 dependent biofilm formation (inhibition/prevention) assay on PVC, crystal violet; type: cell-based, uropathogenic E. coli UTI89; settings: Escherichia coli, read-out: Biofilm Prevention IC50
Summary of the method: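 Prevention: UTI89 grown in LB in PVC wells at 23° C with mannoside at varying concentrations for 48 h, then crystal violet stained and quantified. Disruption: 24 h UTI89 biofilm, mannoside added, grown 16 h more, then crystal violet.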

FimH [3] = biological target: T1, FimH; assay: cell-based; settings: read-out: HAI Titer EC90
[4] = Table 17, Examples 30-36 numbering

## OCC1OC(Oc2ccc(-c3ccc(O)cc3)cc2)C(O)C(O)C1O (centres unmarked) [Compound 3ZFH26, 2-(hydroxymethyl)-6-[4-(4-hydroxyphenyl)phenoxy]tetrahydropyran-3,4,5-triol]
[1]; 64800 sec, […]
  PAMPA (LogPe): −8.890

## COC(=O)c1cccc(-c2ccc(OC3OC(CO)C(O)C(O)C3O)cc2)c1 (centres unmarked) [Compound 2ZFH236]
[1]; 64800 sec, […]
  PAMPA (LogPe): −4.250
FimH [2]
  HAI Titer EC>50: >2500 µM

## NC(=O)Nc1ccc(-c2ccc(OC3O[C@@H](CO)[C@@H](O)[C@H](O)[C@H]3O)cc2)cc1 (stereo partly drawn) [Compound 4ZFH218, [4-[4-[(3R,4S,5S,6S)-3,4,5-trihydroxy-6-(hydroxymethyl)tetrahydropyran-2-yl]oxyphenyl]phenyl]urea]
[1]; 64800 sec, […]
  PAMPA (LogPe): −4.35
FimH [2]
  HAI Titer EC>90: 3.000 µM
FimH [2]; ZFH/JWJ codes
  HAI Titer EC>50: 3.000 µM
FimH [2]; Table 22, ZFH/JWJ codes
  HAI Titer EC>90: 3.000 µM

## COC(=O)c1cccc(-c2ccc(OC3O[C@@H](CO)[C@@H](O)[C@H](O)[C@H]3O)c(C(F)(F)F)c2)c1 (stereo partly drawn) [Compound 4ZFH222, methyl 3-[3-(trifluoromethyl)-4-[(3R,4S,5S,6S)-3,4,5-trihydroxy-6-(hydroxymethyl)tetrahydropyran-2-yl]oxy-phenyl]benzoate]
UTI89 biofilm
  IC50: 8170 nM
[1]; 64800 sec, […]
  PAMPA (LogPe): −3.91
FimH [2]
  HAI Titer EC>90: 0.032 µM
FimH [2]; ZFH/JWJ codes
  HAI Titer EC>50: 0.032 µM
FimH [2]; Table 22, ZFH/JWJ codes
  HAI Titer EC>90: 0.032 µM

## COC(=O)c1cccc(-c2ccc(O[C@H]3O[C@H](CO)[C@@H](O)[C@H](O)[C@@H]3O)c(Cl)c2)c1 [Compound 4b, Methyl 3-[3-chloro-4-[(2R,3S,4S,5S,6R)-3,4,5-trihydroxy-6-(hydroxymethyl)tetrahydropyran-2-yl]oxy-phenyl]benzoate]
UTI89 biofilm
  IC50: 260 nM
[1]; 64800 sec, […]
  PAMPA (LogPe): −4.29
FimH [2]; [4]
  HAI Titer EC>90: 0.03 µM
FimH [2]; relative to matched pair 1, Examples 30-36 numbering
  fold better HAI activity: more than 30 fold
FimH [3]
  EC90: 30 nM

## COC(=O)c1cccc(-c2ccc(O[C@H]3O[C@H](CO)[C@@H](O)[C@H](O)[C@@H]3O)c(C(F)(F)F)c2)c1 [Compound 4d, Methyl 3-[3-(trifluoromethyl)-4-[(2R,3S,4S,5S,6R)-3,4,5-trihydroxy-6-(hydroxymethyl)tetrahydropyran-2-yl]oxy-phenyl]benzoate]
UTI89 biofilm
  IC50: 170 nM
[1]; 64800 sec, […]
  PAMPA (LogPe): −3.91
FimH [2]; [4]
  HAI Titer EC>90: 0.03 µM
FimH [3]
  EC90: 30 nM

## O=[N+]([O-])c1ccc(COC2OC(CO)C(O)C(O)C2O)cc1 (centres unmarked) [Compound 5b]
[1]; PAMPA
  LogPe: −3.89
[1]
  PAMPA (LogPe): −3.89
